Measurements published in patent publication US5036072A, “Antiviral agent” (Ishihara Sangyo Kaisha Ltd., priority 1989, dated 1991).

Assays:
[1] = tested on: helpes simplex virus (1-type, KOS strain); experiment: plaque-reduction evaluation method in Verocells; assay type: cell-based; conditions: drug added one hour after infection, counted three days later
Procedure: The antiviral activities were evaluated by a plaque-reduction evaluation method. Verocells were inoculated to a plastic Petri dish and then proliferated until they formed a monolayer. To each Petri dish, a predetermined number of plaque-forming units (about 100 to 500) of helpes simplex virus (1-type, KOS strain) were infected. Compound 3 was dissolved in 2% of bovine fetus serum inactivated by heating and adjusted to a predetermined concentration. One hour after the infection, the drug solution was added to the cultivation Petri dish (8 ml/Petri dish). Three days later, the cultivation Petri dish was fixed by formalin and dyed with Crystal Violet, whereupon the number of plaques was counted.

[2] = tested on: reverse transcriptase derived from bird's myeloblastosis virus; experiment: inhibition of the reverse transcriptase activities; assay type: biochemical; conditions: 37° C. for 60 minutes, [3H]-TTP incorporation
Procedure: Now, the effects of the antiviral agent of the present invention for inhibition of the reverse transcriptase activities will be shown.
The test solution comprised magnesium chloride (5 mM), DTT (5 mM), sodium chloride (60 mM), [^3 H]-TTP (0.2 mM), poly(λA) (10 μg/ml), Oligo (dT) (0.04 U/ml), reverse transcriptase derived from bird's myeloblastosis virus (3 U/ml) and Tris hydrochloric acid (pH 8.0). Compound 3 was dissolved in cyclodextrin to obtain a solution having a concentration of 5 mg/ml, which was then diluted with water to a predetermined concentration for use.
Then, 50 μl of the test solution and 50 μl of the sample solution were mixed, and the mixture was incubated at 37° C. for 60 minutes. Then, 50 μl of the incubated solution was sampled and soaked into a DEA filter paper. Then, this filter paper was washed with a 5% sodium monohydrogen phosphate solution and then with water and ethanol, followed by drying. The radioactivity contained in the captured fraction was measured by means of a scintillation counter. Then, the inhibition rate (%) of the sample Compound 3 was calculated from the radioactivity of the test sample group and that of the control group.

SMILES: O=C(NC(=O)c1ccccc1[N+](=O)[O-])Nc1ccc(Oc2ncc(Br)cn2)c(Cl)c1 [Compound 3]
- Number of plaques ([1]; 1 μg/ml): 264.5
- inhibition at 1 µg/mL ([1]; 1 μg/ml): 45.1%
- Number of plaques ([1]; 2.5 μg/ml): 122.0
- inhibition at 2.5 µg/mL ([1]; 2.5 μg/ml): 74.7%
- Number of plaques ([1]; 5 μg/ml): 27.5
- inhibition at 5 µg/mL ([1]; 5 μg/ml): 94.3%
- Inhibition rate (%) ([2]; 1.25 μg/ml): 6%
- Inhibition rate (%) ([2]; 2.5 μg/ml): 11%
- Inhibition rate (%) ([2]; 5 μg/ml): 34%
- Inhibition rate (%) ([2]; 10 μg/ml): 57%
